How the values were obtained:
[1] = test system: male Swiss albino mice (CD-1); experiment: Psychomotor seizure test 6 Hz (44 mA); type: in vivo
Method in brief: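 Male CD-1 mice (groups of 4) given compounds i.p. in 1% Tween 30 min before a 3 s, 6 Hz corneal stimulus at 44 mA after lidocaine. Psychomotor seizure signs (immobility, forelimb clonus, vibrissae twitching, Straub tail) scored over 10 s; ANOVA with Dunnett's test, p<0.05.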

[2] = Rotarod test (motor coordination); type: in vivo; details: male, Swiss albino (CD-1), mouse, in vivo, ip, mice
Method in brief: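 Compounds were given i.p. in 1% aqueous Tween as single doses 30 min before testing, 4 mice per group, after training the day before. Mice were tested on a 2 cm rod at 10 rpm for 60 s, and failure to stay on for 1 min counted as impairment. Statistics: one-way ANOVA with Dunnett's test, p<0.05.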

[3] = test system: male white Swiss mice (CD-1); experiment: Formalin test (analgesic activity); type: in vivo; details: Mus musculus, ip, i.p., mice
Description: (§1) The tests were carried out using male white Swiss mice (CD-1) weighing 18-25 g. All procedures were carried out in accordance with Polish and international guidelines on ethics of animal testing, after obtaining appropriate institutional approval. The study group consisted of 8-10 animals. The tested and reference substances were administered intraperitoneally 30 minutes before given test as suspension in 1% aqueous solution of Tween. All tests/models were carried out based on the procedures described in the specialist literature: the formalin test (Beirith, A.; Santos, A. R.; Calixto, J. B.; Rodrigues, A. L.; Creczynski-Pasa, T. B. Eur. J. Pharmacol. 1998, 345, 233-245), the model of capsaicin-induced pain (Mogilski, S.; Kubacka, M.; Redzicka, A.; Kazek, G.; Dudek, M.; Malinka, W.; Filipek, B. Pharmacol. Biochem. Behav. 2015, 133, 99-110), the model of oxaliplatin-induced neuropathic pain—von Frey test (Sałat, K.; Cios, A.; Wyska, E.; Satat, R.; Mogilski, S.; Filipek, B.; Wigȩkowski, K.; Malawska, B. Pharmacol. Biochem. Behav. 2014, 122, 173-181).
The pain was induced by the subplantar injection of 20 μL of 2.5% formalin solution into the mice right hind paw. The animals were placed in separate, transparent observation chambers for a period of 30 minutes. The measured value was the total licking and biting time of the paw to which the formalin solution was injected. The nociceptive reaction time was calculated for the first 5 minutes after formalin injection (first phase of the test—acute pain) and in the 15-20, 20-25 and 25-30 minutes time intervals after its administration (second phase of the test—inflammatory pain). The observed inhibition of nociceptive reaction—reduction of paw licking and biting time, was interpreted as the analgesic effect of the compound tested. Based on the results obtained, the ED50 dose was calculated (dose that reduces the nociceptive reaction time by 50%). […] Compound 6 was administered at doses of 10 mg/kg, 20 mg/kg and 30 mg/kg.

[4] = test system: male white Swiss mice (CD-1); experiment: Capsaicin-induced pain model; type: in vivo; details: Mus musculus, ip; i.p. 30 min before capsaicin, mice
Description: as §1
This test assesses the time of licking and/or biting the hind paw into which mice were injected subplantarly with capsaicin in an amount of 1.6 μg, dissolved in 20 μl of a mixture containing 0.9% saline and ethanol (5% of the final volume). Observation was carried out […] after capsaicin administration. Test compounds were administered intraperitoneally 30 minutes before administration of capsaicin. Inhibition of nociceptive reaction—shortening the time of licking and biting the paw was the measure of antinociceptive activity of the compound tested.
Valproic acid (VPA) was the reference compound in this test. […] Compound 6 was administered at 20 mg/kg, 30 mg/kg and 40 mg/kg. Test compounds were administered as a suspension in 1.0% Tween 80 solution. The control group consisted of mice treated with vehicle alone (1% Tween 80 solution). The nociceptive reaction time in this group was 43.29±3.21 seconds.

Potassium channel (hERG) = Potassium channel (hERG) (Homo sapiens, UniProt Q12809); experiment: Potassium channel (hERG) affinity study; type: binding; details: 100 μM, human recombinant cells (HEK-293)
CYP3A4 = target: T1, CYP3A4 (Homo sapiens, UniProt P08684); experiment: CYP3A4 P450-Glo luminescence test; type: in vitro ADME
T1 construct: purchased Promega (Madison, WI, USA)
Description: Effect of compound 6 on cytochrome P-450 3A4 and 2D6 activity. The research was conducted using commercial luminescence tests CYP3A4 P450-Glo™ and CYP2D6 P450-Glo™ from Promega (Madison, WI, USA) based on the methodology described in the literature (Socała, K.; Mogilski, S.; Pieróg, M.; Nieoczym, D.; Abram, M.; Szulczyk, B.; Lubelska, A.; Latacz, G.; Doboszewska, U.; Wlaź, P.; Kamiński, K. ACS Chem. Neurosci. 2018, doi: 10.1021/acschemneuro.8b00476; Latacz, G.; Lubelska, A.; Jastrzȩbska-Wiȩek, M.; Partyka, A.; Sobato, A.; Olejarz, A.; Kucwaj-Brysz, K.; Satata, G.; Bojarski, A. J.; Wesołowska, A.; Kieć-Kononowicz, K.; Handzlik, J. Chem. Biol. Drug. Des. 2017, 90, 1295-1306). The CYP isoforms selected for study are responsible for the metabolism of approximately 40-50% of the drugs available on the market, and their stimulation or inhibition determines the majority of metabolic drug interactions. […] In summary, the results obtained indicate a low probability of potential metabolic interactions caused by 6.

T1 sequence (P08684 whole entry): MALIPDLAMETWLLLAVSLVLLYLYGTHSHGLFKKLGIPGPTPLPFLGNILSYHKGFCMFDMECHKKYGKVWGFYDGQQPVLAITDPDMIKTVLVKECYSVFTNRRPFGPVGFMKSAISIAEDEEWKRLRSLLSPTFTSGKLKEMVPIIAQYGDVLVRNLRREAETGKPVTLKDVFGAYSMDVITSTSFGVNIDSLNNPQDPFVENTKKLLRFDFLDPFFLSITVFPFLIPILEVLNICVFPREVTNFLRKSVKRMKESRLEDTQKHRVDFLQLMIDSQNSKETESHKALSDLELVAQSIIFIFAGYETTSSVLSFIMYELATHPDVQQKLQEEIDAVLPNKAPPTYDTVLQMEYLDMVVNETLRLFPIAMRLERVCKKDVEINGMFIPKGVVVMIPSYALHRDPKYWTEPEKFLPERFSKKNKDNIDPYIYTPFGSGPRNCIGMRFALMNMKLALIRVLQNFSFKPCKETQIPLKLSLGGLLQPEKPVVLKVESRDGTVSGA
Chain of Potassium channel (hERG) (Q12809 whole entry): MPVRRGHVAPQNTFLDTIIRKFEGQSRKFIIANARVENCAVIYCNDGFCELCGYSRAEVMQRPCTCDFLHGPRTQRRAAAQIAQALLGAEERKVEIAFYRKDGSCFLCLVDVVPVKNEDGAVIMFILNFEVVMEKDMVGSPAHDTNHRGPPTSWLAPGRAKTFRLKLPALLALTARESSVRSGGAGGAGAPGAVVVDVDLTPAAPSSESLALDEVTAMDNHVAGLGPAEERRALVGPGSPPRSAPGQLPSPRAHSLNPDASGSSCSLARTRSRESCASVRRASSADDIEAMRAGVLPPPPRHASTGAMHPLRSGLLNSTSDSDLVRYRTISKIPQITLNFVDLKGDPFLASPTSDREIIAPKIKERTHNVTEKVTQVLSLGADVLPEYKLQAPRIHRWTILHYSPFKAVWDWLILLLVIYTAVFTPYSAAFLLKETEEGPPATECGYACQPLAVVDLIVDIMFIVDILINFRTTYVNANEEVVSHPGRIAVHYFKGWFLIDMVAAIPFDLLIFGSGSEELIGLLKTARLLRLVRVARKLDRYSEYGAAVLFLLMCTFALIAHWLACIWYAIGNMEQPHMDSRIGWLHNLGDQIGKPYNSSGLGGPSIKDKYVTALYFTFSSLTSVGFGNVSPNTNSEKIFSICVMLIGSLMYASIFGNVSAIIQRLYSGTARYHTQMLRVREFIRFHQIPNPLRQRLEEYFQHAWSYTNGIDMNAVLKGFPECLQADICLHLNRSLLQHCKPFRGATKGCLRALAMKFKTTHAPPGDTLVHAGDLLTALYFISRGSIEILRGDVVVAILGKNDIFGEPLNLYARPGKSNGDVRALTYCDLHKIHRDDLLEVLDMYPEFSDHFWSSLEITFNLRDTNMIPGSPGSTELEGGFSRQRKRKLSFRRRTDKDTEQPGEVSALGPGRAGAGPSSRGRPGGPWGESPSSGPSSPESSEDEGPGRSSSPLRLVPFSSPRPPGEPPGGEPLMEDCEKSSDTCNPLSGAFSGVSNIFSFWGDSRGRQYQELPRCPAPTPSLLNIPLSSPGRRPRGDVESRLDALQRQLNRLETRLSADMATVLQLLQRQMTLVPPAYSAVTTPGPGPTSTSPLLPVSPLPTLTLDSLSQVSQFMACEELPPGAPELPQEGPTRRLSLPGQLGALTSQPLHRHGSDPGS

**Q.** With `O=C(C(c1ccccc1)N1C(=O)CCC1=O)N1CCN(c2cccc(C(F)(F)F)c2)CC1` (racemic) [Compound 6, 1-(2-Oxo-1-phenyl-2-(4-(3-(trifluoromethyl)phenyl)piperazin-1-yl)ethyl)pyrrolidine-2,5-dione] as the compound, how does the ED50 ([1]; Mus musculus, ip, 0.5 h, mice) read?
**A.** Its ED50 is 73.2 mg/kg.

**Q.** And the “6 Hz (44 mA): number of mice protected/number of mice tested” value ([1]; screening, 100 mg/kg i.p., 0.5 h, mice)?
**A.** The value was 4/4.

**Q.** What about the “mice protected in the 6 Hz (44 mA) test” value ([1]; screening, 100 mg/kg, time point 0.5 h) of the same compound?
**A.** Its value is 100%.

**Q.** What about the TD50 at 0.5 h [2] of the same compound?
**A.** Its TD50 at 0.5 h is 196 mg/kg.

**Q.** And the ED50 ([3]; phase I (acute pain, 0-5 min), read-out: ED50 in the first phase of the formalin test)?
**A.** Its ED50 is 28.5 mg/kg.

**Q.** And the ED50 ([3]; phase II (inflammatory pain, 15-30 min), read-out: ED50 in the second phase of the formalin test)?
**A.** The ED50 was 12.4 mg/kg.

**Q.** What about the ED50 [4] of the same compound?
**A.** The ED50 was 17.9 mg/kg.

**Q.** And the “Inhibition of specific control binding, Potassium channel (hERG)” value (Potassium channel (hERG))?
**A.** The value was 25.8 (100) %.

**Q.** What about the “effect on CYP3A4 activity” value (CYP3A4) of the same compound?
**A.** The value was “no effect”.
